Earlier results on 1 molecule are cited in US20230167447A1, “Compositions for FNIP1/FNIP2 Gene Modulation and Methods Thereof” (Genetic Intelligence, Inc, priority 2021, published 2023).

In this series the test system is ALS patients.

The structures appear in SMILES notation.

For the molecule `CC1=NN(c2ccccc2)C(=O)C1` [Edaravone, edaravone], the “decline in physical function in ALS patients” value was “slows the decline in physical function” and the “subset of patients for which effective” value is reported as “around 7%”.
